Legend:
[1] = target: T1, integrin α5β1 (fibronectin receptor purified from the human placenta) (Homo sapiens, UniProt P05556+P08648); experiment: α5β1 binding assay (fibronectin-fibronectin receptor binding assay); conditions: fibronectin binding to human placenta fibronectin receptor; read-out: α5β1 Binding inhibitory activity
T1 construct: a fibronectin receptor (protein content: 52.1 μg/ml) purified from the human placenta; from tissue; host or cells: human placenta
Procedure: (§1) Integrin α5β1 antagonistic activity (lethality) was measured for the compounds according to the present invention in a fibronectin-fibronectin receptor binding assay system in accordance with the method of Kouns et al. (W. C. Kouns, D. Kirchhofer, P. Hadvary, A. Edenhofer, T. Weller, G. Pfenninger, H. R. Baumgartner, L. K. Jennings, and B. Steiner, Blood, 80, 2539-2547 (1992)).
Specifically, a fibronectin receptor (protein content: 52.1 μg/ml) purified from the human placenta by the method of Pytela et al. (R. Pytela, M. D. Pierschbacher, S. Argraves, S. Suzuki, and E. Ruoslahti, Method in Enzymology, 144, 475-489 (1987)) was diluted 25 times with TBS (20 mM Tris-HCl, 150 mM NaCl, 1 mM CaCl2, 1 mM MgCl2, pH 7.4), and distributed and coated on wells (50 μl/well) of a plate (Maxisorp, Nunc, 96 well Immuno Plate). The plate was then allowed to stand at 4° C. for one day, washed twice with TBS (200 μl/well), and then subjected to blocking with TBS (150 μl/well) containing 3% skim milk (DIFCO) at 4° C. overnight. After washing twice with TBS (200 μl/well) containing 0.05% Tween-20 and then washing twice with TBS (200 μl/well), purification was carried out according to the method of E. Engvall et al. (E. Engvall, E. Ruoslahti, and E. J. Miller, J. Exp. Med., 147, 1584-1595 (1978)), and 50 […] of fibronectin adjusted to 0.2 μg/ml by the addition of TBS (TBS-Tween) containing 0.01% Tween-20 was mixed with 50 μl of each test compound adjusted to each concentration in the wells, and a reaction was allowed to proceed at room temperature for 3 hr. After the completion of the reaction, the wells were washed five times with TBS-Tween. A solution prepared by diluting a peroxidase-labeled fibronectin antibody (CAPPEL) 500 times with TBS-Tween was added in an amount of 50 μl per well, and a reaction was allowed to proceed at room temperature for 1.5 hr. After washing five times with TBS-Tween (200 μl/well), ABTS (SIGMA) adjusted to 1 mg/ml by the addition of a ten-fold diluted POD-buffer (ZYMED) was added in an amount of 50 μl/well, and a reaction was allowed to proceed for 5 to 10 min. A 0.1 M citric acid buffer (pH 4.3) containing 0.05% NaN3 was added in an amount of 50 μl/well to stop the reaction, followed by the measurement of the absorbance at 415 nm with a microplate reader (MTP 32, Corona Electric) (reference: 675 nm). The total binding was defined as the absorbance after a reaction using 50 μl of TBS-Tween instead of the test compound, and the non-specific binding (100% inhibition) was defined as the absorbance after a reaction using 50 μl of TBS-Tween containing 2×10^−3 M RGDS. The inhibition was calculated by the following equation: [formula]
(§2) IC50 was determined from a primary regression line of the logarithm of each concentration of the test compound and the logarithm of (100−inhibition)/inhibition.

GP IIb/IIIa = GP IIb/IIIa (Homo sapiens, UniProt P05106+P08514); experiment: GP IIb/IIIa antagonistic activity (method of Pharmacological Test 2 in WO 94/21599); assay type: binding
Procedure: (§3) GP IIb/IIIa Antagonistic Activity and Human Platelet Aggregation Inhibitory Activity
GP IIb/IIIa antagonistic activity was measured for the compounds according to the present invention. The measurement of the GP IIb/IIIa antagonistic activity was carried out according to the method described in Pharmacological Test 2 in WO 94/21599.

[2] = target: T2, integrin αvβ3 (vitronectin receptor purified from the human placenta) (Homo sapiens, UniProt P05106+P06756); experiment: αvβ3 binding assay (vitronectin-vitronectin receptor binding assay); conditions: vitronectin binding to human placenta vitronectin receptor; read-out: integrin αvβ3 antagonistic activity, IC50 value
T2 construct: a vitronectin receptor (protein content: 118 μg/ml) purified from the human placenta; from tissue; host or cells: human placenta
Procedure: as §1, with “αvβ3” for “α5β1”, “activity” for “activity (lethality)”, “vitronectin-vitronectin” for “fibronectin-fibronectin”, “Jennings” for “Jennings,”
Specifically, a vitronectin receptor (protein content: 118 μg/ml) purified from the human placenta in accordance with the method of Pytela et al. (R. Pytela, M. D. Pierschbacher, S. Argraves, S. Suzuki, and E. Ruoslahti, Method in Enzymology, 144, 475-489 (1987)) was diluted 50 times with TBS (20 mM Tris-HCl, 150 mM NaCl, 1 mM CaCl2, 1 mM MgCl2, pH 7.4), and distributed and coated on wells (50 μl/well) of a plate (Maxisorp, Nunc, 96 well Immuno Plate). The plate was then allowed to stand at 4° C. for 1 day, washed twice with TBS (200 μl/well), and then subjected to blocking with TBS (150 μl/well) containing 1% bovine serum albumin (SIGMA) at 4° C. overnight. After washing twice with TBS (200 μl/well), 50 μl of vitronectin (CALBIOCHEM) adjusted to 0.2 μg/ml by the addition of TBS (TBS-Tween) containing 0.01% Tween-20 was mixed with 50 μl of each test compound adjusted to each concentration in wells, and a reaction was allowed to proceed at room temperature for 4 hr. After the completion of the reaction, the wells were washed five times with TBS-Tween. A solution prepared by diluting anti-vitronectin rabbit antiserum (CHEMICON) 500 times with TBS-Tween was added as a primary antibody in an amount of 50 μl/well, and a reaction was allowed to proceed at room temperature for 1.5 hr. After washing five times with 200 μl/well of TBS-Tween, a peroxidase (POD)-labeled anti-rabbit IgG antibody solution (CAPPEL) diluted 500 times with TBS-Tween was added as a secondary antibody in an amount of 50 μl/well, and a reaction was allowed to proceed at room temperature for 1.5 hr. After washing five times with TBS-Tween (200 μl/well), ABTS (2,2′-azino-bis(3-ethylbenzthiazoline-6-sulfonic acid), SIGMA) was adjusted to 1 mg/ml by the addition of a ten-fold diluted POD-buffer (ZYMED), and added in an amount of 50 μl/well, and a reaction was allowed to proceed for 5 to 10 min. A 0.1 M citric acid buffer (pH 4.3) containing 0.05% NaN3 was added in an amount of 50 μl/well to stop the reaction, followed by the measurement of the absorbance at 415 nm with a microplate reader (MTP 32, Corona Electric) (reference: 675 nm). The total binding was defined as the absorbance after a reaction using 50 μl of TBS-Tween instead of the test compound, and the non-specific binding (100% inhibition) was defined as the absorbance after a reaction using 50 μl of TBS-Tween containing 2×10^−3 M RGDS. The inhibition was calculated by the following equation: [formula]
as §2

[3] = system: human platelet aggregation; experiment: Human platelet aggregation inhibitory activity (method of Pharmacological Test 1 in WO 94/21599); assay type: cell-based; conditions: human platelets, read-out: inhibition of human platelet aggregation, IC5. value
Procedure: as §3
Human platelet aggregation inhibitory activity was measured for the compounds according to the present invention. The measurement of the human platelet aggregation activity was carried out according to the method described in Pharmacological Test 1 in WO 94/21599.

T1 sequence (P08648 42-894 limits assumed): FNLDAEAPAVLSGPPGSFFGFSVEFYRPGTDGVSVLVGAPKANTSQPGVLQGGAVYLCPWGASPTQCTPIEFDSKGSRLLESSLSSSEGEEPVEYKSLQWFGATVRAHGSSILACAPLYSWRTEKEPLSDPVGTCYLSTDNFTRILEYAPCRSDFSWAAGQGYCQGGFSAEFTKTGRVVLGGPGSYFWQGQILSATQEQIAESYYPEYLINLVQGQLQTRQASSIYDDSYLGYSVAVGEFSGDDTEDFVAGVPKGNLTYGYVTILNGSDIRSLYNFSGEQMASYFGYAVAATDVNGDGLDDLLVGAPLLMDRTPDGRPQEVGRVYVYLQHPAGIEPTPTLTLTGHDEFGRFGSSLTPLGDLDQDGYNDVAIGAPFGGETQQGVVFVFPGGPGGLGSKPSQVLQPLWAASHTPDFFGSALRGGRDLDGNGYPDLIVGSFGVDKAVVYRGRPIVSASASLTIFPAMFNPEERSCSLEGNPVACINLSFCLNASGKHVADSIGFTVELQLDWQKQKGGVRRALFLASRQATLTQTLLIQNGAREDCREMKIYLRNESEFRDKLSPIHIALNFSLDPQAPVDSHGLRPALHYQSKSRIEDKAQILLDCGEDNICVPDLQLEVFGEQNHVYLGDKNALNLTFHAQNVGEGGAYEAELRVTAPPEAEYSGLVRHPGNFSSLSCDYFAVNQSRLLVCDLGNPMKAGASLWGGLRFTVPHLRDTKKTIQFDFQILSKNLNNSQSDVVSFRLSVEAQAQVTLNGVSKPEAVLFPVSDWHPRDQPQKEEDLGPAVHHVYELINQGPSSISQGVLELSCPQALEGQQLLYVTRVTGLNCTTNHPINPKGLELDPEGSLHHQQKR
T1 sequence (P08648 895-1049 limits assumed): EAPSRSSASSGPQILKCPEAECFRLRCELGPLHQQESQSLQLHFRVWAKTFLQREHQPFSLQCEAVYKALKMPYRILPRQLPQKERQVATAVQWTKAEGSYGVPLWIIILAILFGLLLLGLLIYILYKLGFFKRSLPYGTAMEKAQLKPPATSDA
T1 sequence (P05556 21-798): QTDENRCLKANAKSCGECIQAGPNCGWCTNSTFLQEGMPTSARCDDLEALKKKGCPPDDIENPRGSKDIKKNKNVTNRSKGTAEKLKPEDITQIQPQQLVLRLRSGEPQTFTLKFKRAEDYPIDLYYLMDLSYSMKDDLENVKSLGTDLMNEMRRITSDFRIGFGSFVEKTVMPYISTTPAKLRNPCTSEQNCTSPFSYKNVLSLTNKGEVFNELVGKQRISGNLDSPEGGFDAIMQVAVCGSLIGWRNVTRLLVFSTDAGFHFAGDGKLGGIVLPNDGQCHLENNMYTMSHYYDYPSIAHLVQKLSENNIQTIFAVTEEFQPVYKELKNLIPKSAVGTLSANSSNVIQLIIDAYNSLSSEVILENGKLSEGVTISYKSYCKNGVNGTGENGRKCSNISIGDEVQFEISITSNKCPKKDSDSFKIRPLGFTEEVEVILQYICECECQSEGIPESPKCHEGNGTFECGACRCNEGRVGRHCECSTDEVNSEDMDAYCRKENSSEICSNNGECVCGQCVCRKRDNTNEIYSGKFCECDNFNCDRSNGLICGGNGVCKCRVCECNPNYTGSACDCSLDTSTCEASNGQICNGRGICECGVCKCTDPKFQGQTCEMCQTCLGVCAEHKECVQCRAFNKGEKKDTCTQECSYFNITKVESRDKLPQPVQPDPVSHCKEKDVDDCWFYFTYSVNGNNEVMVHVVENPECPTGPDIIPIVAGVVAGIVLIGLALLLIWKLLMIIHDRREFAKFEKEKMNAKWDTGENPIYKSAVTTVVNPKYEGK
GP IIb/IIIa, sequence (P08514 32-887 limits assumed): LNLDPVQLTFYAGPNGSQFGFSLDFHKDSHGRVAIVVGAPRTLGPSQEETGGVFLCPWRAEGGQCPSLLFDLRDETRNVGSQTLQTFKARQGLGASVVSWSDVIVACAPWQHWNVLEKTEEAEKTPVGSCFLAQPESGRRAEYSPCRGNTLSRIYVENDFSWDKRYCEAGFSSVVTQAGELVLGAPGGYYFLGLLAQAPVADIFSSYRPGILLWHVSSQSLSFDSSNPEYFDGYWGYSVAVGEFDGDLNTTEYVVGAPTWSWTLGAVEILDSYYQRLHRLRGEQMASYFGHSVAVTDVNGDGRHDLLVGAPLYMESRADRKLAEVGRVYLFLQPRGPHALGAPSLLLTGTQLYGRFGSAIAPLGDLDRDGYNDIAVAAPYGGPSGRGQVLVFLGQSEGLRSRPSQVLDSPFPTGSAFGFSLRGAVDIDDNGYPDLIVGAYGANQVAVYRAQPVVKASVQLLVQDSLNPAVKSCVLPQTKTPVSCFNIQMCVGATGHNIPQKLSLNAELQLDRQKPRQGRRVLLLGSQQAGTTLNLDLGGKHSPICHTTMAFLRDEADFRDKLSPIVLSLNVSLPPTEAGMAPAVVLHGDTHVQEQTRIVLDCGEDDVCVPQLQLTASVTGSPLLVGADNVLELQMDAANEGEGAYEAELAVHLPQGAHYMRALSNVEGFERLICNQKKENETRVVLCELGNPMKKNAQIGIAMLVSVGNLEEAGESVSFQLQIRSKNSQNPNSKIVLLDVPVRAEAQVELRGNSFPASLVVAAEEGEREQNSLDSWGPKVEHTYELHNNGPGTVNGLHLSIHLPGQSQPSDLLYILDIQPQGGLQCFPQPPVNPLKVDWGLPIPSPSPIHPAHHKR
GP IIb/IIIa, sequence (P08514 891-1039 limits assumed): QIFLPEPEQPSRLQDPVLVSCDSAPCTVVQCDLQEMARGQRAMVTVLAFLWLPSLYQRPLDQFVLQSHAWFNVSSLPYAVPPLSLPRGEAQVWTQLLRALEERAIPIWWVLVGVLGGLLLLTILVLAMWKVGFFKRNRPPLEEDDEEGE
GP IIb/IIIa, sequence (P05106 27-788): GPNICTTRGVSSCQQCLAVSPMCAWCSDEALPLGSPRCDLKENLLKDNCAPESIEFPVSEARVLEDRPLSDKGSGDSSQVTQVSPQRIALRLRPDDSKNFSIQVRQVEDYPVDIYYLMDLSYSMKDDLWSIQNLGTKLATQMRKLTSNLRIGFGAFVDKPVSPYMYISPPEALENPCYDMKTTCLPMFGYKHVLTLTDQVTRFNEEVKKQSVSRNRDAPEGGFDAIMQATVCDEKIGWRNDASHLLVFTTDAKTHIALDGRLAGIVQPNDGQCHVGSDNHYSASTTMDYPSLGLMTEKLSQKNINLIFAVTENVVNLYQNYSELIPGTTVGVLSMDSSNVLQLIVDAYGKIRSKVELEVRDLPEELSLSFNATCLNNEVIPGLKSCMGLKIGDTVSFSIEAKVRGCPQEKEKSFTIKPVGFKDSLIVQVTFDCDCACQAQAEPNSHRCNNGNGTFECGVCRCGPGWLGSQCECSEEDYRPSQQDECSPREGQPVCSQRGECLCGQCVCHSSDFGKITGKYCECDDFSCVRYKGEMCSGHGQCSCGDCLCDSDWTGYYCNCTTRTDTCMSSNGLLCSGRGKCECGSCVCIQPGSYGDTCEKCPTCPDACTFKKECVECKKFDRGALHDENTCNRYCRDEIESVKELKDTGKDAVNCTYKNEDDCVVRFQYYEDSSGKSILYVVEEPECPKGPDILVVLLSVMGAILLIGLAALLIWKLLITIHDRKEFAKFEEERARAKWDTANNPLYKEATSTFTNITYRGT
T2 sequence (P06756 31-889 limits assumed): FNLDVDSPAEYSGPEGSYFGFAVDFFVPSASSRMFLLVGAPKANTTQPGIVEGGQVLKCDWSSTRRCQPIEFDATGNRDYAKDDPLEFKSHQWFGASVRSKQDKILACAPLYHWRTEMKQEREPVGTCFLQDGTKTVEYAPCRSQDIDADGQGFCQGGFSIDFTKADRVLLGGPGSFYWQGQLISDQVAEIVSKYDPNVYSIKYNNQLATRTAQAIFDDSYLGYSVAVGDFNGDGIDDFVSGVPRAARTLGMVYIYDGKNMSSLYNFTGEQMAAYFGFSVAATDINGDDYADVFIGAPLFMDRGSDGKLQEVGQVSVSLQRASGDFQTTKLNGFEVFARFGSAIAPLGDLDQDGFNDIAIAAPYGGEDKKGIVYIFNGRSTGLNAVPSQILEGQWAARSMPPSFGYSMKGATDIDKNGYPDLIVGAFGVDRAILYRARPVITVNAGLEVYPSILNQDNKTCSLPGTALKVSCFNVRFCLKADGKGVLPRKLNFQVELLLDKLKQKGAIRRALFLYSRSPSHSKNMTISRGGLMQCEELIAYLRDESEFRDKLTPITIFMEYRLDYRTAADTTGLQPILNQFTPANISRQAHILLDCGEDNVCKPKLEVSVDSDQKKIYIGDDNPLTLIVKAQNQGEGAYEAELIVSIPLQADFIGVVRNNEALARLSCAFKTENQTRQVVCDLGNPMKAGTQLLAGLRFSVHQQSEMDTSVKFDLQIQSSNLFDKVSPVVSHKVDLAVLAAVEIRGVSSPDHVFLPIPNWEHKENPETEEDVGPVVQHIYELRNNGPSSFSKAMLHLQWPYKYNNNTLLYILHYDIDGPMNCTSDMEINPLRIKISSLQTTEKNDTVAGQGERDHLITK
T2 sequence (P06756 891-1048 limits assumed): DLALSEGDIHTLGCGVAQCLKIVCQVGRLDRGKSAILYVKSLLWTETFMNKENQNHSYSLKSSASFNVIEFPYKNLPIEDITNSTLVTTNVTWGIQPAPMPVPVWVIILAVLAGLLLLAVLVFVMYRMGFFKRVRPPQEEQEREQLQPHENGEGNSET
T2 sequence (P05106 27-788): as the sequence (P05106 27-788) above

Compound	IC50 [1] [nM]	IC50 (GP IIb/IIIa) [nM]	IC50 [2] [nM]	IC50 [3] [nM]
O=C(NC[C@H](NS(=O)(=O)c1ccccc1)C(=O)O)c1ccc(N2CCC(NC3=NCCCN3)CC2)cc1 [Example 3, (2S)-Benzenesulfonylamino-3-[4-{4-(1,4,5,6-tetrahydropyrimidin-2-ylamino)piperidin-1-yl}benzoyl-amino]propionic acid]	1600			
O=C(NC[C@H](NS(=O)(=O)c1ccccc1)C(=O)O)c1ccc(N2CCC(Nc3nc4ccccc4[nH]3)CC2)cc1 [Example 10, (2S)-Benzenesulfonylamino-3-[4-{4-(1H-benzimidazol-2-ylamino)piperidin-1-yl}benzoylamino]-propionic acid]	1600			
O=C(N[C@@H](CNC(=O)c1ccc(N2CCC(Nc3nc4ccccc4[nH]3)CC2)cc1)C(=O)O)OCc1ccccc1 [Example 24, 3-[4-{4-(1H-Benzimidazol-2-ylamino)piperidin-1-yl}benzoylamino]-(2S)-{(benzyloxy-carbonyl)amino}propionic acid]	6900	≤ 1		
CCCCS(=O)(=O)N[C@@H](CNC(=O)c1ccc(N2CCC(Nc3nc4ccccc4[nH]3)CC2)cc1)C(=O)O [Example 28, (2S)-Butane-1-sulfonylamino-3-[4-{4-(1H-benzimidazol-2-ylamino)piperidin-1-yl}benzoylamino]-propionic acid]	1300	≤ 1	≤ 1	
O=C(NC[C@H](NS(=O)(=O)c1ccccc1)C(=O)O)c1ccc(N2CCC(NC3=NCCN3)CC2)cc1 [Example 40, (2S)-Benzenesulfonylamino-3-[4-{4-(4.5-dihydro-1H-imidazol-2-ylamino)piperidin-1-yl}benzoyl-amino]propionic acid]		≤ 1		≤ 90
O=C(NC[C@H](NS(=O)(=O)c1ccccc1)C(=O)O)c1ccc(N2CCC(NC3=NCCCCN3)CC2)cc1 [Example 42, (2S)-Benzenesulfonylamino-3-[4-{4-(4,5,6,7-tetrahydro-1H-[1,3]diazepin-2-ylamino)piperidin-1-yl}-benzoylamino]propionic acid]		≤ 1	≤ 1	≤ 90
CN(C1=NCCCN1)C1CCN(c2ccc(C(=O)NC[C@H](NS(=O)(=O)c3ccccc3)C(=O)O)cc2)CC1 [Example 45, (2S)-Benzenesulfonylamino-3-[4-[4-[{N-methyl-N-(1,4,5,6-tetrahydropyrimidin-2-yl)}amino]-piperidin-1-yl]benzoylamino]propionic acid]		≤ 1		≤ 90
O=C(NC[C@H](NS(=O)(=O)c1ccccc1)C(=O)O)c1ccc(N2CCC(NC3=NCCN3)CC2)c(F)c1 [Example 54, (2S)-Benzenesulfonylamino-3-[3-fluoro-4-{4-(4,5-dihydro-1H-imidazol-2-ylamino)piperidin-1-yl}-benzoylamino]propionic acid]		≤ 1	≤ 1	≤ 90
Nc1ccc(S(=O)(=O)N[C@@H](CNC(=O)c2ccc(N3CCC(NC4=NCCCN4)CC3)c(F)c2)C(=O)O)cc1 [Example 68, (2S)-(4-Aminobenzenesulfonyl)amino-3-[3-fluoro-4-{4-(1,4,5,6-tetrahydropyrimidin-2-ylamino)-piperidin-1-yl}benzoylamino]propionic acid]	11500	≤ 1	≤ 1	

— US6420558B1, “Aminopiperidine derivates as integrin αvβ3 antagonists” (Meiji Seika Kaisha, Ltd., priority 1998, dated 2002)
